Test results published in patent publication US20100317528A1, “HERBICIDE CONTAINING BENZOYLPYRAZOLE COMPOUND” (ISHIHARA SANGYO KAISHA, LTD., priority 2006, published 2010).

Columns and labels:
Format in all cases: in vivo
[1] = system: barnyardgrass (Echinochloa crus-galli L.); assay: Test Example 1: foliar treatment, upland pot test, barnyardgrass
Description: (§1) Upland field soil was put into a 1/170,000 hectare pot, and seeds of various plants were sown. When the respective plants reached predetermined leaf stage ((1) barnyardgrass (Echinochloa crus-galli L.): 1.0 to 3.0 leaf stage, (2) crabgrass (Digitaria sanguinalis L.): 1.0 to 3.0 leaf stage, (3) green foxtail (Setaria viridis L.): 1.0 to 3.0 leaf stage, (4) redroot pigweed (Amaranthus retroflexus L.): cotyledon stage to 2.0 leaf stage, (5) prickly sida (Sida spinosa L.): cotyledon stage to 1.0 leaf stage, (6) velvetleaf (Abutilon theophrasti MEDIC.): 0.1 to 1.5 leaf stage, (7) rice (Oryza sativa L.): 1.0 to 3.0 leaf stage, (8) wheat (Triticum spp.): 1.7 to 3.4 leaf stage, (9) corn (Zea mays L.): 2.0 to 3.5 leaf stage, (10) soybean (Glycine max Merr.): primary leaf stage to 0.4 leaf stage), wettable powders or emulsifiable concentrates of the compounds of the above formula (I) prepared in accordance with a conventional preparation method, were weighed so that the active ingredients became the prescribed amounts, and diluted with water in an amount corresponding to 500 liter per 1 hectare (containing 0.1 vol % of “KUSARINOH”, manufactured by NIHON NOHYAKU CO., LTD. as an agricultural spreader). The spray solutions thus prepared were applied for foliar treatment by a small sprayer.
(§2) On the 17th to 25th day after application, the state of growth of the respective plants was visually observed, and the herbicidal effect was evaluated by a growth inhibition rate (%) of 0 (equivalent to the non-treated area) to 100% (complete kill).

[2] = system: crabgrass (Digitaria sanguinalis L.); assay: Test Example 1: foliar treatment, upland pot test, crabgrass
Description: as §1, §2

[3] = system: green foxtail (Setaria viridis L.); assay: Test Example 1: foliar treatment, upland pot test, green foxtail
Description: as §1, §2

[4] = system: redroot pigweed (Amaranthus retroflexus L.); assay: Test Example 1: foliar treatment, upland pot test, redroot pigweed
Description: as §1, §2

[5] = system: prickly sida (Sida spinosa L.); assay: Test Example 1: foliar treatment, upland pot test, prickly sida
Description: as §1, §2

[6] = system: velvetleaf (Abutilon theophrasti MEDIC.); assay: Test Example 1: foliar treatment, upland pot test, velvetleaf
Description: as §1, §2

rice (Oryza sativa L.) [7] = assay: Test Example 1: foliar treatment, upland pot test, rice
Description: as §1, §2

wheat (Triticum spp.) [8] = assay: Test Example 1: foliar treatment, upland pot test, wheat
Description: as §1, §2

corn (Zea mays L.) [9] = assay: Test Example 1: foliar treatment, upland pot test, corn
Description: as §1, §2

[10] = system: soybean (Glycine max Merr.); assay: Test Example 1: foliar treatment, upland pot test, soybean
Description: as §1, §2

[11] = system: barnyardgrass (Echinochloa crus-galli L.); assay: Test Example 2: soil application on the day after sowing, barnyardgrass; details: 250 g/ha active ingredient, observed 19th to 28th day after application; for inhibition at 250 g/ha: Echinochloa crus-galli, read-out: Growth inhibition rate (%) Barnyardgrass
Description: (§3) Upland field soil was put into a 1/170,000 hectare pot, and seeds of various plants barnyardgrass (Echinochloa crus-galli L.), crabgrass (Digitaria sanquinalis L.), green foxtail (Setaria viridis L.), redroot pigweed (Amaranthus retroflexus L.), prickly sida (Sida spinosa L.), velvetleaf (Abutilon theophrasti MEDIC.), rice (Oryza sativa L.), wheat (Triticum spp.), corn (Zea mays L.) and soybean (Glycine max Merr.)) were sown. On the day after sowing, wettable powders or emulsifiable concentrates of the compounds of the above formula (I) prepared in accordance with a conventional preparation method, were weighed so that the active ingredients became the prescribed amounts, and diluted with water in an amount corresponding to 500 liter per 1 hectare, followed by soil application with a small sprayer.
(§4) On the 19th to 28th day after the application, the state of growth of the respective plants was visually observed, and the herbicidal effect was evaluated by a growth inhibition rate (%) of from 0 (equivalent to the non-treated area) to 100% (complete kill).

[12] = system: crabgrass (Digitaria sanquinalis L.); assay: Test Example 2: soil application on the day after sowing, crabgrass; details: 250 g/ha active ingredient, observed 19th to 28th day after application; for inhibition at 250 g/ha: Digitaria, read-out: Growth inhibition rate (%) Crabgrass
Description: as §3, §4

[13] = system: green foxtail (Setaria viridis L.); assay: Test Example 2: soil application on the day after sowing, green foxtail; details: 250 g/ha active ingredient, observed 19th to 28th day after application; for inhibition at 250 g/ha: Setaria viridis, read-out: Growth inhibition rate (%) Green foxtail
Description: as §3, §4

[14] = system: redroot pigweed (Amaranthus retroflexus L.); assay: Test Example 2: soil application on the day after sowing, redroot pigweed; details: 250 g/ha active ingredient, observed 19th to 28th day after application; for inhibition at 250 g/ha: Amaranthus retroflexus, read-out: Growth inhibition rate (%) Redroot pigweed
Description: as §3, §4

[15] = system: prickly sida (Sida spinosa L.); assay: Test Example 2: soil application on the day after sowing, prickly sida; details: 250 g/ha active ingredient, observed 19th to 28th day after application; for inhibition at 250 g/ha: Sida spinosa, read-out: Growth inhibition rate (%) Prickly sida
Description: as §3, §4

[16] = system: velvetleaf (Abutilon theophrasti MEDIC.); assay: Test Example 2: soil application on the day after sowing, velvetleaf; details: 250 g/ha active ingredient, observed 19th to 28th day after application; for inhibition at 250 g/ha: Abutilon theophrasti, read-out: Growth inhibition rate (%) Velvetleaf
Description: as §3, §4

rice (Oryza sativa L.) [17] = assay: Test Example 2: soil application on the day after sowing, rice; details: 250 g/ha active ingredient, observed 19th to 28th day after application; for inhibition at 250 g/ha: Oryza sativa, read-out: Growth inhibition rate (%) Rice
Description: as §3, §4

wheat (Triticum spp.) [18] = assay: Test Example 2: soil application on the day after sowing, wheat; details: 250 g/ha active ingredient, observed 19th to 28th day after application; for inhibition at 250 g/ha: Triticum, read-out: Growth inhibition rate (%) Wheat
Description: as §3, §4

corn (Zea mays L.) [19] = assay: Test Example 2: soil application on the day after sowing, corn; details: 250 g/ha active ingredient, observed 19th to 28th day after application; for inhibition at 250 g/ha: Zea mays, read-out: Growth inhibition rate (%) Corn
Description: as §3, §4

[20] = system: soybean (Glycine max Merr.); assay: Test Example 2: soil application on the day after sowing, soybean; details: 250 g/ha active ingredient, observed 19th to 28th day after application; for inhibition at 250 g/ha: Glycine max, read-out: Growth inhibition rate (%) Soybean
Description: as §3, §4

[21] = Echinochloa crus-galli, 31 g/ha active ingredient, observed 17th to 25th day after application, read-out: Growth inhibition rate (%) Barnyardgrass
[22] = Digitaria sanguinalis, 31 g/ha active ingredient, observed 17th to 25th day after application, read-out: Growth inhibition rate (%) Crabgrass
[23] = Setaria viridis, 31 g/ha active ingredient, observed 17th to 25th day after application, read-out: Growth inhibition rate (%) Green foxtail
[24] = Amaranthus retroflexus, 31 g/ha active ingredient, observed 17th to 25th day after application, read-out: Growth inhibition rate (%) Redroot pigweed
[25] = Sida spinosa, 31 g/ha active ingredient, observed 17th to 25th day after application, read-out: Growth inhibition rate (%) Prickly sida
[26] = Abutilon theophrasti, 31 g/ha active ingredient, observed 17th to 25th day after application, read-out: Growth inhibition rate (%) Velvetleaf
[27] = Oryza sativa, 31 g/ha active ingredient, observed 17th to 25th day after application, read-out: Growth inhibition rate (%) Rice
[28] = Triticum, 31 g/ha active ingredient, observed 17th to 25th day after application, read-out: Growth inhibition rate (%) Wheat
[29] = Zea mays, 31 g/ha active ingredient, observed 17th to 25th day after application, read-out: Growth inhibition rate (%) Corn
[30] = Glycine max, 31 g/ha active ingredient, observed 17th to 25th day after application, read-out: Growth inhibition rate (%) Soybean
[31] = 31 g/ha active ingredient, observed 17th to 25th day after application

SMILES | inhibition at 250 g/ha [11] [%] | inhibition at 250 g/ha [12] [%] | inhibition at 250 g/ha [13] [%] | inhibition at 250 g/ha [14] [%] | inhibition at 250 g/ha [15] [%] | inhibition at 250 g/ha [16] [%] | inhibition at 250 g/ha (rice (Oryza sativa L.) [17]) [%] | inhibition at 250 g/ha (wheat (Triticum spp.) [18]) [%] | inhibition at 250 g/ha (corn (Zea mays L.) [19]) [%] | inhibition at 250 g/ha [20] [%] | inhibition at 31 g/ha [1, 21] [%] | inhibition at 31 g/ha [2, 22] [%] | inhibition at 31 g/ha [3, 23] [%] | inhibition at 31 g/ha [4, 24] [%] | inhibition at 31 g/ha [5, 25] [%] | inhibition at 31 g/ha [6, 26] [%] | inhibition at 31 g/ha (rice (Oryza sativa L.) [7]; [27]) [%] | inhibition at 31 g/ha (wheat (Triticum spp.) [8]; [28]) [%] | inhibition at 31 g/ha (corn (Zea mays L.) [9]; [29]) [%] | inhibition at 31 g/ha [10, 30] [%] | other results
CCn1ncc(C(=O)c2ccc(S(C)(=O)=O)c(OCCC3OCCO3)c2Cl)c1O [compound 244] | 100 | 90 | 70 | 90 | 60 | 80 | 80 | 0 | 0 | 0 | – | – | – | – | – | – | – | – | – | – | inhibition at 63 g/ha ([1]; Echinochloa crus-galli, 63 g/ha active ingredient, observed 21st day after application, read-out: Growth inhibition rate (%) Barnyardgrass): 50%; inhibition at 63 g/ha ([2]; Digitaria sanguinalis, 63 g/ha active ingredient, observed 21st day after application, read-out: Growth inhibition rate (%) Crabgrass): 20%; inhibition at 63 g/ha ([3]; Setaria viridis, 63 g/ha active ingredient, observed 21st day after application, read-out: Growth inhibition rate (%) Green foxtail): 40%; inhibition at 63 g/ha ([4]; Amaranthus retroflexus, 63 g/ha active ingredient, observed 21st day after application, read-out: Growth inhibition rate (%) Redroot pigweed): 80%; inhibition at 63 g/ha ([5]; Sida spinosa, 63 g/ha active ingredient, observed 21st day after application, read-out: Growth inhibition rate (%) Prickly sida): 50%; inhibition at 63 g/ha ([6]; Abutilon theophrasti, 63 g/ha active ingredient, observed 21st day after application, read-out: Growth inhibition rate (%) Velvetleaf): 70%; inhibition at 63 g/ha (rice (Oryza sativa L.) [7]; Oryza sativa, 63 g/ha active ingredient, observed 21st day after application, read-out: Growth inhibition rate (%) Rice): 10%; inhibition at 63 g/ha (wheat (Triticum spp.) [8]; Triticum, 63 g/ha active ingredient, observed 21st day after application, read-out: Growth inhibition rate (%) Wheat): 0%; inhibition at 63 g/ha (corn (Zea mays L.) [9]; Zea mays, 63 g/ha active ingredient, observed 21st day after application, read-out: Growth inhibition rate (%) Corn): 0%; inhibition at 63 g/ha ([10]; Glycine max, 63 g/ha active ingredient, observed 21st day after application, read-out: Growth inhibition rate (%) Soybean): 70%
Cc1c(C(=O)c2cnn(C)c2O)ccc(S(C)(=O)=O)c1C#N [compound 171] | 70 | 80 | 40 | 100 | 50 | 40 | 10 | 0 | 0 | 10 | 80 | 60 | 70 | 80 | 70 | 75 | 40 | 0 | 0 | 70 | –
COC(COc1c(S(C)(=O)=O)ccc(C(=O)c2cnn(C)c2O)c1C)OC [Compound No. 1, 5-hydroxy-1-methylpyrazol-4-yl 3-(2,2-dimethoxyethoxy)-2-methyl-4-(methylsulfonyl)phenyl ketone] | 100 | 90 | 100 | 100 | 30 | 95 | 90 | 40 | 0 | 40 | 98 | 90 | 98 | 98 | 80 | 100 | 80 | 30 | 10 | 98 | –
COc1c(S(C)(=O)=O)ccc(C(=O)c2cnn(C)c2O)c1C [compound 143] | 100 | 100 | 100 | 100 | 90 | 100 | 100 | 70 | 20 | 80 | 10 | 70 | 70 | 80 | 70 | 98 | 40 | 10 | 0 | 60 | –
CCCOC(=O)c1c(S(C)(=O)=O)ccc(C(=O)c2cnn(CC)c2O)c1Cl [compound 154] | – | – | – | – | – | – | – | – | – | – | – | – | – | – | – | – | – | – | – | – | Growth inhibition rate (%) Barnyardgrass [1, 31]: 40%; Growth inhibition rate (%) Crabgrass [2, 31]: 70%; Growth inhibition rate (%) Green foxtail [3, 31]: 60%; Growth inhibition rate (%) Redroot pigweed [4, 31]: 70%; Growth inhibition rate (%) Prickly sida [5, 31]: 40%; Growth inhibition rate (%) Velvetleaf [6, 31]: 60%; Growth inhibition rate (%) Rice (rice (Oryza sativa L.) [7]; [31]): 50%; Growth inhibition rate (%) Wheat (wheat (Triticum spp.) [8]; [31]): 0%; Growth inhibition rate (%) Corn (corn (Zea mays L.) [9]; [31]): 0%; Growth inhibition rate (%) Soybean [10, 31]: 30%; Growth inhibition rate (%) Barnyardgrass [11]: 100%; Growth inhibition rate (%) Crabgrass [12]: 95%; Growth inhibition rate (%) Green foxtail [13]: 30%; Growth inhibition rate (%) Redroot pigweed [14]: 100%; Growth inhibition rate (%) Prickly sida [15]: 60%; Growth inhibition rate (%) Velvetleaf [16]: 40%; Growth inhibition rate (%) Rice (rice (Oryza sativa L.) [17]): 50%; Growth inhibition rate (%) Wheat (wheat (Triticum spp.) [18]): 0%; Growth inhibition rate (%) Corn (corn (Zea mays L.) [19]): 0%; Growth inhibition rate (%) Soybean [20]: 0%
